PubChem BioAssay (NCI)
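Each compound was tested at five concentrations against cells in 96-well plates for 48 hours. Abbreviation: GI50, concentration required for 50% inhibition of growth. TGI is the concentration that stops growth completely.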

Columns and labels:
Experiment in all cases: NCI tumour cell line growth inhibition, 48 h
[1] = system: PC-3 prostate
[2] = system: NCI-H522 lung
[3] = system: HT29 colon
[4] = system: RXF 393 renal
[5] = system: TK-10 renal
[6] = system: OVCAR-3 ovarian
[7] = system: HCC-2998 colon
[8] = system: UACC-62 melanoma
[9] = system: UO-31 renal
[10] = system: NCI-H226 lung
[11] = system: MDA-MB-468 breast
[12] = system: DU-145 prostate
[13] = system: T-47D breast
[14] = system: SK-MEL-5 melanoma
[15] = system: K-562 leukemia
[16] = system: HS 578T breast
[17] = system: SW-620 colon
[18] = system: NCI/ADR-RES ovarian
[19] = system: MCF7 breast
[20] = system: SF-295 CNS
[21] = system: IGROV1 ovarian
[22] = system: 786-0 renal
[23] = system: COLO 205 colon
[24] = system: NCI-H23 lung
[25] = system: SK-OV-3 ovarian
[26] = system: OVCAR-4 ovarian
[27] = system: HCT-116 colon
[28] = system: HOP-92 NSCLC
[29] = system: HOP-62 NSCLC
[30] = system: SF-539 CNS
[31] = system: SNB-75 CNS
[32] = system: SK-MEL-2 melanoma
[33] = system: BT-549 breast
[34] = system: HCT-15 colon
[35] = system: OVCAR-5 ovarian
[36] = system: SN12C renal
[37] = system: MDA-MB-435
[38] = system: UACC-257 melanoma
[39] = system: MDA-MB-231 breast
[40] = system: LOX IMVI melanoma
[41] = system: M14 melanoma
[42] = system: A498 renal
[43] = system: CAKI-1 renal
[44] = system: SF-268 CNS
[45] = system: MALME-3M melanoma
[46] = system: KM12 colon
[47] = system: NCI-H460 lung
[48] = system: EKVX NSCLC
[49] = system: HL-60(TB) leukemia
[50] = system: U251 CNS
[51] = system: MOLT-4 leukemia
[52] = system: RPMI-8226 leukemia
[53] = system: ACHN renal
[54] = system: SR leukemia
[55] = system: CCRF-CEM leukemia
[56] = system: SNB-19 CNS
[57] = system: A549 NSCLC
[58] = system: OVCAR-8 ovarian
[59] = system: SK-MEL-28 melanoma

In the case of `CC(=C(c1ccc(OCCN2CCCCCC2)cc1)c1ccc(OCCN2CCCCCC2)cc1)c1ccc(Cl)cc1`, the GI50 [1] is reported as 4.53 µM, the TGI [1] is reported as 10 µM and the GI50 [2] is reported as 4.84 µM. It also gave a TGI [2] of 10.1 µM, a GI50 [3] of 0.942 µM and a TGI [3] of 2.55 µM. The GI50 [4] was 1.76 µM, the TGI [4] was 7.23 µM and the GI50 [5] was 6.19 µM. The TGI [5] was 11.7 µM, the GI50 [6] was 2.83 µM and the TGI [6] was 8.44 µM. It also gave a GI50 [7] of 1.05 µM, a TGI [7] of 3.86 µM and a GI50 [8] of 1.09 µM. The TGI [8] was 3.57 µM, the GI50 [9] was 4.66 µM and the TGI [9] was 9.6 µM. It also gave a GI50 [10] of 5.96 µM, a TGI [10] of 12.6 µM and a GI50 [11] of 1.3 µM. It also gave a TGI [11] of 6.08 µM, a GI50 [12] of 5.19 µM and a TGI [12] of 10.4 µM. The GI50 [13] was 2.89 µM, the TGI [13] was 9.27 µM and the GI50 [14] was 2.84 µM. The TGI [14] was 8.15 µM, the GI50 [15] was 0.908 µM and the TGI [15] was 40.7 µM. For the same compound, the GI50 [16] was 5.25 µM, the TGI [16] was 13.3 µM and the GI50 [17] was 0.757 µM. It also gave a TGI [17] of 1.75 µM, a GI50 [18] of 5.82 µM and a TGI [18] of 11.6 µM. For the same compound, the GI50 [19] was 0.654 µM, the TGI [19] was 1.77 µM and the GI50 [20] was 1.97 µM. For the same compound, the TGI [20] was 7.2 µM, the GI50 [21] was 5.09 µM and the TGI [21] was 10.3 µM. The GI50 [22] was 3.62 µM, the TGI [22] was 10.5 µM and the GI50 [23] was 0.813 µM. For the same compound, the TGI [23] was 1.62 µM, the GI50 [24] was 5.58 µM and the TGI [24] was 11.1 µM. It also gave a GI50 [25] of 6.46 µM, a TGI [25] of 12.1 µM and a GI50 [26] of 5.76 µM. The TGI [26] was 11.7 µM, the GI50 [27] was 1.49 µM and the TGI [27] was 6.22 µM. It also gave a GI50 [28] of 2.01 µM, a TGI [28] of 8.1 µM and a GI50 [29] of 5.77 µM. It also gave a TGI [29] of 11.6 µM, a GI50 [30] of 4.54 µM and a TGI [30] of 9.49 µM. It also gave a GI50 [31] of 4.78 µM, a TGI [31] of 9.96 µM and a GI50 [32] of 6.88 µM. It also gave a TGI [32] of 12.6 µM, a GI50 [33] of 7.09 µM and a TGI [33] of 13.3 µM. For the same compound, the GI50 [34] was 1.48 µM, the TGI [34] was 5.7 µM and the GI50 [35] was 5 µM. For the same compound, the TGI [35] was 10.1 µM, the GI50 [36] was 5.38 µM and the TGI [36] was 10.9 µM. The GI50 [37] was 0.807 µM, the TGI [37] was 1.9 µM and the GI50 [38] was 1.44 µM. The TGI [38] was 5.62 µM, the GI50 [39] was 4.19 µM and the TGI [39] was 8.99 µM. For the same compound, the GI50 [40] was 0.776 µM, the TGI [40] was 1.61 µM and the GI50 [41] was 0.838 µM. The TGI [41] was 1.85 µM, the GI50 [42] was 5.47 µM and the TGI [42] was 11 µM. The GI50 [43] was 4.69 µM, the TGI [43] was 9.75 µM and the GI50 [44] was 5.44 µM. The TGI [44] was 11.4 µM, the GI50 [45] was 0.745 µM and the TGI [45] was 1.66 µM. For the same compound, the GI50 [46] was 4.56 µM, the TGI [46] was 10.1 µM and the GI50 [47] was 1.37 µM. It also gave a TGI [47] of 5.14 µM, a GI50 [48] of 5.77 µM and a TGI [48] of 11.5 µM. The GI50 [49] was 1.32 µM, the TGI [49] was 9.39 µM and the GI50 [50] was 5.31 µM. It also gave a TGI [50] of 11.3 µM, a GI50 [51] of 1.08 µM and a TGI [51] of 3.33 µM. It also gave a GI50 [52] of 1.29 µM, a TGI [52] of 4.7 µM and a GI50 [53] of 5.9 µM. The TGI [53] was 11.2 µM, the GI50 [54] was 0.963 µM and the TGI [54] was 3.33 µM. It also gave a GI50 [55] of 1.11 µM, a TGI [55] of 3.88 µM and a GI50 [56] of 6.06 µM. It also gave a TGI [56] of 11.5 µM, a GI50 [57] of 4.64 µM and a TGI [57] of 12.1 µM. The GI50 [58] was 7.95 µM, the TGI [58] was 18.5 µM and the GI50 [59] was 0.682 µM. It also gave a TGI [59] of 1.29 µM.
